What was measured:
[1] = test system: human respiratory picornavirus; details: nasal thixotropic formulation, 12 mg per day nasal spray v. 400 mg oral dose; cited from earlier work
[2] = safety analysis: adverse events in enrolled neonates; assay type: in vivo, human
Procedure: (§1) A 2:1 study drug: placebo randomization with randomly permuted block sizes was used. Randomization codes were accessible only to biostatistical personnel at the coordinating center. Subjects initially received 5.0 mg/kg/dose of a 40 mg/mL liquid formulation of pleconaril (ViroPharma, Inc.; Exton, PA) or matching placebo identical in composition except lacking active study drug. The liquid formulation expired on May 31, 2002, after which the formulation was changed by the manufacturer to a 40 mg/mL suspension. Subjects received 8.5 mg/kg/dose of pleconaril suspension (shown to provide similar drug exposure as 5.0 mg/kg/dose of pleconaril liquid) or matching placebo. Both pleconaril formulations and matching placebos were administered every 8 hours×7 days in 1.0 mL of breast milk or formula by mouth or orogastric tube and were given to subjects who were otherwise NPO. Subjects were permitted to receive antibiotics, acyclovir, cardiotropic medications, and IVIG. Subjects for whom an etiology for illness other than EV infection was documented after enrollment had study drug/placebo discontinued. […]
(§2) Specimens for EV culture and polymerase chain reaction (PCR) were obtained from the oropharynx, rectum, urine, and serum on days 1-5, 7, 10, and 14. […] Adverse events were recorded at each evaluation, and relationship to study treatment was determined by site investigators.

[3] = 25° C.; cited from earlier work
CYP 3A = details: oral delivery at 200-400 mg dose level; cited from earlier work
[4] = test system: neonatal enterovirus infections; experiment: clinical efficacy: survival of neonates with suspected enterovirus sepsis, placebo-controlled study; assay type: in vivo, human
Text: (§3) Sixty-one subjects were enrolled; 43 randomized to the treatment group and 18 to the placebo group (FIG. 1). Of these, 43 (70%) were confirmed EV-positive: 31 in the treatment group and 12 in the placebo group. The study was terminated prior to full accrual due to expiration of study drug. […] 8/18 (44%) in the placebo group and lost-to-follow-up in 9/43 (21%) subjects in the treatment group v. 1/18 (6%) in the placebo group. Neonates with suspected EV sepsis (hepatitis, coagulopathy, and/or myocarditis) were enrolled at 19 centers from June 1999-December 2010.
(§4) A 2:1 study drug: placebo randomization with randomly permuted block sizes was used. Randomization codes were accessible only to biostatistical personnel at the coordinating center. Subjects initially received 5.0 mg/kg/dose of a 40 mg/mL liquid formulation of pleconaril (ViroPharma, Inc.; Exton, PA) or matching placebo identical in composition except lacking active study drug. The liquid formulation expired on May 31, 2002, after which the formulation was changed by the manufacturer to a 40 mg/mL suspension. Subjects received 8.5 mg/kg/dose of pleconaril suspension (shown to provide similar drug exposure as 5.0 mg/kg/dose of pleconaril liquid) or matching placebo. Both pleconaril formulations and matching placebos were administered every 8 hours×7 days in 1.0 mL of breast milk or formula by mouth or orogastric tube and were given to subjects who were otherwise NPO. Subjects were permitted to receive antibiotics, acyclovir, cardiotropic medications, and IVIG. Subjects for whom an etiology for illness other than EV infection was documented after enrollment had study drug/placebo discontinued.
(§5) A target sample size of 45 subjects with confirmed EV disease, with an expectation that approximately 67% of enrolled subjects would be confirmed to be EV-infected, was chosen to provide sufficient power to detect a reduction in viral shedding from the oropharynx from 96% to 70% on day 5. EV-confirmed subjects (culture- or PCR-positive) were included in virologic and clinical efficacy analyses, all enrolled subjects were included in safety analyses, and pleconaril recipients for whom pharmacokinetic data were obtained (whether or not EV-infected) were included in pharmacokinetic analyses. Survival analyses were conducted on the total enrolled cohort and on EV-confirmed subjects.
(§6) Fisher's Exact Test was utilized for comparisons of categorical factors and the Kruskal-Wallis and Mann Whitney Tests for continuous factors, with medians and ranges presented. Kaplan-Meier curves and log-rank statistics were utilized to assess differences in duration of culture and PCR positivity and survival between study groups. Changes in toxicity grades from baseline and adverse event rates were compared by chi-square tests.
(§7) The primary endpoint was the percentage of patients with a positive viral culture from the oropharynx five days after beginning study drug. Secondary endpoints included duration of culture positivity from oropharynx, rectum, urine and serum; changes in laboratory values reflecting resolution or progression of EV disease or drug toxicity; duration of hospitalization; time to resolution of organ abnormalities; survival; and pleconaril pharmacokinetics. Tertiary endpoints included duration of blood product (fresh frozen plasma, packed red blood cells, platelets, other products) and inotropic support.

enterovirus = experiment: virological efficacy: EV culture and PCR in neonates with suspected enterovirus sepsis, placebo-controlled study; assay type: in vivo, human
Text: as §3, §4, §5, §6
Specimens for EV culture and polymerase chain reaction (PCR) were obtained from the oropharynx, rectum, urine, and serum on days 1-5, 7, 10, and 14. Plasma for pharmacokinetic analysis was obtained on day 1 (2, 4, and 8 hours after study drug administration) and days 3 and 7 (prior to and 2 and 4 hours after administration). Hematology and chemistry tests were obtained on study days 1, 3, 5, 7, 10, and 14 and urinalyses on days 1 and 7. Persisting abnormalities were followed at visits at 2, 6, 12, 18, and 24 months. Adverse events were recorded at each evaluation, and relationship to study treatment was determined by site investigators.
as §7, with “Tertiary endpoints included duration of blood product (fresh frozen plasma, packed red blood cells, platelets, other products) and inotropic support.” left out

[5] = plasma pharmacokinetics in neonates; assay type: in vivo, human; details: on D1
Procedure: as §1, §2

For `Cc1cc(CCCOc2c(C)cc(-c3noc(C(F)(F)F)n3)cc2C)on1` [Pleconaril, 3-{3,5-dimethyl-4-[3-(3-methylisoxazol-5-yl)propoxy]phenyl}-5-(trifluoromethyl)-1,2,4-oxadiazole], the “clinical/antiviral effect of nasal spray compared with oral dose” value [1] is listed as “roughly similar clinical/antiviral effect”, the “subjects with adverse events whose events were judged possibly/probably treatment-related” value ([2]; treatment group v. 18% placebo) is listed as 3% and the “enrolled subjects who experienced adverse events” value ([2]; treatment group v. 94% placebo) is listed as “Eighty-six”. The solubility in water [3] was less than 0.02 µg/mL, the “induction of CYP 3A (side effect)” value (CYP 3A) was “induction of CYP 3A” and the “cumulative survival v. placebo, EV-confirmed subjects” value ([4]; over two months) was “trends in cumulative survival favoring the treatment group”. For the same compound, the “cumulative survival over two months v. placebo, all enrolled subjects” value ([4]; p=0.02) was “greater”, the “cumulative survival over 18 months v. placebo” value ([4]; p=0.07 among all subjects, p=0.23 among EV-confirmed subjects) was “continued to exceed” and the “subjects who died, EV-confirmed subjects” value ([4]; treatment group 7/31 v. placebo 5/12 (42%)) was 23%. The “subjects who died, all enrolled subjects” value ([4]; treatment group 10/43 v. placebo 8/18 (44%)) was 23%, the “EV-confirmed subjects culture-positive from the oropharynx” value (enterovirus; day 1, treatment group, 6 of 24) was 25% and the “subjects shedding cultivable virus from the oropharynx” value (enterovirus; day 5 (primary endpoint)) was “no subjects”. The “persistence of PCR positivity from OP, compared with placebo” value (enterovirus; oropharynx, pleconaril group v. placebo) was “shorter”, the “time to culture negativity of all sites combined, compared with placebo” value (enterovirus; pleconaril group v. placebo) was “shorter” and the “median time to culture-negativity from all sites among culture-positive subjects” value (enterovirus; treatment group (19 subjects) v. 7.0 days placebo, p=0.08) was 4.0 days. For the same compound, the “median time to sustained culture-negativity, urine” value (enterovirus; treatment group v. 7.0 days placebo, p=0.05) was 4.0 days, the “median time to sustained oropharyngeal culture negativity” value (enterovirus; treatment group, placebo also 3.0) was 3.0 days and the “share with concentrations below IC90” value [5] was 41%.

Reference: patent US20260060964A1, “METHODS AND COMPOSITIONS FOR TREATING SEPSIS” (Antivirus Therapeutics, priority 2021, published 2026)
